# Columns and labels:
# Assay type in all cases: functional
# [1] = Anti-glycation activity assessed as inhibition of AGE formation at 150 uM incubated for 3 days in presence of BSA and MGO by fluorescence based assay relative to control; design: scale not given: the % may be the effect or the level left
# [2] = system: Zone of skin; test: Anti-aging activity in reconstructed human skin assessed as dermis contraction at 150 uM by hematoxylin and eosin staining-based microscopic analysis (reference value: 57.4%)
# [3] = Anti-glycation activity assessed as inhibition of AGE formation at 10 mM incubated for 3 days in presence of BSA and MGO by fluorescence based assay relative to control; design: scale not given: the % may be the effect or the level left
# [4] = system: Zone of skin; test: Anti-aging activity in reconstructed human skin assessed as dermis contraction at 10 mM by hematoxylin and eosin staining-based microscopic analysis (reference value: 57.4%)
SMILES,Activity [1] [%],Activity [2] [%],Activity [3] [%],Activity [4] [%]
C[N+]1(C)CCc2cc(O)c(O)cc2C1Cc1ccc(O)cc1 (stereo not drawn),61.5 to 63,8.7,–,–
COc1cc2c(cc1O)C(Cc1ccc(O)cc1)[N+](C)(C)CC2 (stereo not drawn),26.1,–,–,–
N=C(N)NN [PIMAGEDINE],–,–,92.2,49.7
CN1CCc2cc(O)c(O)cc2C1Cc1ccc(O)cc1 (stereo not drawn),98.2,4.2,–,–
C[N+]1(C)C=Cc2cc(O)c(O)cc2C1Cc1ccc(O)cc1 (stereo not drawn),83.3,–,–,–

# — ChEMBL document CHEMBL4613257, “Advanced Glycation End Product Inhibition by Alkaloids from Ocotea paranapiacabensis for the Prevention of Skin Aging” (2020)
